Reference: patent publication US20250339399A1, “SUPRAMOLECULAR SELF-ASSEMBLY SYSTEM” (Beijing Creatron Institute of Pharmaceutical Research Co., …, priority 2022, published 2025)

How the values were obtained:
[1] = Guest molecule concentration after incubation in initial medium without polymer (Comparative Example 1); assay type: physicochemical; details: 37° C.
Method: pH 2.0 hydrochloric acid, pH 4.5 acetate, and pH 6.5, pH 6.8, or pH 7.4 phosphate buffer solutions were prepared. The selection of each initial medium followed the principle that the solubility in the initial medium of the selected targets (or active ingredients) should low enough, but should meet the detection sensitivity and accuracy requirements of the corresponding analytical methods. Each buffer as initial media was placed in a 50 ml test tube with a stopper, shaken in a constant temperature air shaker at 37° C.±0.5° C., with an amplitude of 200 rpm, and incubated for 1 hour. […] Samples were taken at 0.5 h, 3 h and 6 h after incubation, centrifuged at 37° C., 13000 rpm for 5 minutes, and the supernatant was diluted at least 10 times with the mobile phase under the target analyte analytical method, filtered, the initial filtrate was discarded, and the continued filtrate was used as the test solution for injection analysis. The corresponding HPLC method under each target object item in Table 8 was used to determine the content of each target substance. When the solubility of the target in the initial medium is below the quantitative limit of the analytical method, a small amount of surfactant, such as sodium dodecyl sulfate (SDS), Tween20, or Tween80, can be added appropriately.
The above targets were incubated at 37° C.±0.5° C. for different time in an initial medium without any polymer. Each solid target formed by molecular stacking was removed by centrifugation, and the supernatant was analyzed using the HPLC method under each target item (see Table 8). The theoretical addition concentration of each target when its supramolecular self-assembly system was built was determined by its maximum dose in clinical use.

[2] = Binary supramolecular self-assembly systems of polymer and target: guest concentration over incubation time (Comparative Example 2); assay type: physicochemical
Method: Experiments were conducted according to the steps in Comparative Example 1, and quantitative analysis was carried out using the analytical method for each target to investigate the regulation ability […] stacking.

[3] = cited from earlier work
[4] = binary system with 0.5% polymer 101, incubation 0.5 h
[5] = binary system with 0.5% polymer 101, incubation 3 h
[6] = binary system with 0.5% polymer 101, incubation 6 h
[7] = binary system with 0.5% polymer 102, incubation 0.5 h
[8] = binary system with 0.5% polymer 102, incubation 3 h
[9] = binary system with 0.5% polymer 102, incubation 6 h
[10] = binary system with 0.5% polymer 103, incubation 0.5 h
[11] = binary system with 0.5% polymer 103, incubation 3 h
[12] = binary system with 0.5% polymer 103, incubation 6 h
[13] = binary system with 0.5% polymer 104, incubation 0.5 h
[14] = binary system with 0.5% polymer 104, incubation 3 h
[15] = binary system with 0.5% polymer 104, incubation 6 h
[16] = binary system with 0.5% polymer 106, incubation 0.5 h
[17] = binary system with 0.5% polymer 106, incubation 3 h
[18] = binary system with 0.5% polymer 106, incubation 6 h
[19] = binary system with 0.5% polymer 107, incubation 0.5 h
[20] = binary system with 0.5% polymer 107, incubation 3 h
[21] = binary system with 0.5% polymer 107, incubation 6 h
[22] = binary system with 0.5% polymer 110, incubation 0.5 h
[23] = binary system with 0.5% polymer 110, incubation 3 h
[24] = binary system with 0.5% polymer 110, incubation 6 h

Row | SMILES | Concentration of the target in the solution measured after different incubation time [2, 7] | Concentration of the target in the solution measured after different incubation time [2, 8] | Concentration of the target in the solution measured after different incubation time [2, 9] | Concentration of guest molecule measured after different incubated time ([1]; 0.5 h, pH 6.8 phosphate buffer) | Concentration of guest molecule measured after different incubated time ([1]; 3 h, pH 6.8 phosphate buffer) | Concentration of guest molecule measured after different incubated time ([1]; 6 h, pH 6.8 phosphate buffer) | Concentration of the target in the solution measured after different incubation time [2, 4] | Concentration of the target in the solution measured after different incubation time [2, 5] | Concentration of the target in the solution measured after different incubation time [2, 6] | Concentration of the target in the solution measured after different incubation time [2, 10] | Concentration of the target in the solution measured after different incubation time [2, 11] | Concentration of the target in the solution measured after different incubation time [2, 12] | Concentration of the target in the solution measured after different incubation time [2, 13] | Concentration of the target in the solution measured after different incubation time [2, 16] | Concentration of the target in the solution measured after different incubation time [2, 17] | Concentration of the target in the solution measured after different incubation time [2, 18] | Concentration of the target in the solution measured after different incubation time [2, 19] | Concentration of the target in the solution measured after different incubation time [2, 20] | Concentration of the target in the solution measured after different incubation time [2, 21] | LogD7.4 or Log P [3] | further results
1 | CCC(C)n1ncn(-c2ccc(N3CCN(c4ccc(OCC5COC(Cn6cncn6)(c6ccc(Cl)cc6Cl)O5)cc4)CC3)cc2)c1=O (centres unmarked) [Itraconazole, itraconazole] | 69700 ng/mL | 34500 ng/mL | 24700 ng/mL |  |  |  | 47900 ng/mL | 4800 ng/mL | 3000 ng/mL | 14100 ng/mL | 8600 ng/mL | 1900 ng/mL | 31500 ng/mL | 43300 ng/mL | 8300 ng/mL | 6400 ng/mL | 13500 ng/mL | 1700 ng/mL | 1200 ng/mL | 7.31 | Concentration of guest molecule measured after different incubated time ([1]; 0.5 h, 0.05% SDS in pH 6.8 phosphate buffer): 10700 ng/mL; Concentration of guest molecule measured after different incubated time ([1]; 3 h, 0.05% SDS in pH 6.8 phosphate buffer): 2900 ng/mL; Concentration of guest molecule measured after different incubated time ([1]; 6 h, 0.05% SDS in pH 6.8 phosphate buffer): 2700 ng/mL; Concentration of the target in the solution measured after different incubation time [2, 14]: 7100 ng/mL; Concentration of the target in the solution measured after different incubation time [2, 15]: 3100 ng/mL
2 | O=C(O)[C@H]1O[C@@H](Oc2cc3oc(-c4ccc(O)cc4)cc(=O)c3c(O)c2O)[C@H](O)[C@@H](O)[C@@H]1O [Scutellarin, scutellarin] | 122500 ng/mL | 102000 ng/mL | 102200 ng/mL | 45300 ng/mL | 41700 ng/mL | 43100 ng/mL | 210400 ng/mL | 125200 ng/mL | 110200 ng/mL | 40400 ng/mL | 42800 ng/mL | 42800 ng/mL |  | 57400 ng/mL | 60800 ng/mL | 54300 ng/mL | 61700 ng/mL | 41700 ng/mL | 43100 ng/mL | 0.80 | Concentration of the target in the solution measured after different incubation time [2, 22]: 95900 ng/mL; Concentration of the target in the solution measured after different incubation time [2, 23]: 87300 ng/mL; Concentration of the target in the solution measured after different incubation time [2, 24]: 78300 ng/mL
3 | CC(C)OC(=O)CCC/C=C\C[C@@H]1[C@@H](/C=C/C(F)(F)COc2ccccc2)[C@H](O)C[C@@H]1O [Tafluprost, tafluprost] | 52900 ng/mL | 66100 ng/mL | 67300 ng/mL |  |  |  | 57600 ng/mL | 44800 ng/mL | 23100 ng/mL | 14600 ng/mL | 23100 ng/mL | 27400 ng/mL | 26700 ng/mL |  |  |  | 34500 ng/mL | 36800 ng/mL | 35200 ng/mL | 4.25 | Concentration of guest molecule measured after different incubated time ([1]; 0.5 h, pH 7.4 phosphate buffer): 18600 ng/mL; Concentration of guest molecule measured after different incubated time ([1]; 3 h, pH 7.4 phosphate buffer): 9300 ng/mL; Concentration of guest molecule measured after different incubated time ([1]; 6 h, pH 7.4 phosphate buffer): 6800 ng/mL; Concentration of the target in the solution measured after different incubation time [2, 14]: 24200 ng/mL; Concentration of the target in the solution measured after different incubation time [2, 15]: 17300 ng/mL; Concentration of guest molecule in solution ([2]; binary: 0.25% 102H, 6 h): 67300 ng/mL; Log P ([3]; prost derivatives, Table 31 (relevant information)): Log P:4.29 D-H: 2 R-H:4

Now from value to molecule, other results behind:

Row | Concentration of the target in the solution measured after different incubation time [2, 7] | Concentration of the target in the solution measured after different incubation time [2, 8] | Concentration of the target in the solution measured after different incubation time [2, 9] | Concentration of guest molecule measured after different incubated time ([1]; 0.5 h, pH 6.8 phosphate buffer) | Concentration of guest molecule measured after different incubated time ([1]; 3 h, pH 6.8 phosphate buffer) | Concentration of guest molecule measured after different incubated time ([1]; 6 h, pH 6.8 phosphate buffer) | SMILES | Concentration of the target in the solution measured after different incubation time [2, 4] | Concentration of the target in the solution measured after different incubation time [2, 5] | Concentration of the target in the solution measured after different incubation time [2, 6] | Concentration of the target in the solution measured after different incubation time [2, 10] | Concentration of the target in the solution measured after different incubation time [2, 11] | Concentration of the target in the solution measured after different incubation time [2, 12] | Concentration of the target in the solution measured after different incubation time [2, 13] | Concentration of the target in the solution measured after different incubation time [2, 16] | Concentration of the target in the solution measured after different incubation time [2, 17] | Concentration of the target in the solution measured after different incubation time [2, 18] | Concentration of the target in the solution measured after different incubation time [2, 19] | Concentration of the target in the solution measured after different incubation time [2, 20] | Concentration of the target in the solution measured after different incubation time [2, 21] | LogD7.4 or Log P [3] | further results
4 | 151600 ng/mL | 254900 ng/mL | 272100 ng/mL | 19800 ng/mL | 12400 ng/mL | 9600 ng/mL | CC1(C)CCC(CN2CCN(c3ccc(C(=O)NS(=O)(=O)c4ccc(NCC5CCOCC5)c([N+](=O)[O-])c4)c(Oc4cnc5[nH]ccc5c4)c3)CC2)=C(c2ccc(Cl)cc2)C1 [Venetoclax, venetoclax] | 233600 ng/mL | 249500 ng/mL | 252600 ng/mL | 78600 ng/mL | 72900 ng/mL | 59500 ng/mL |  | 232200 ng/mL | 250500 ng/mL | 156800 ng/mL | 152200 ng/mL | 153100 ng/mL | 156800 ng/mL | 6.88 | Concentration of the target in the solution measured after different incubation time [2, 22]: 385500 ng/mL; Concentration of the target in the solution measured after different incubation time [2, 23]: 534600 ng/mL; Concentration of the target in the solution measured after different incubation time [2, 24]: 566200 ng/mL
5 | 80500 ng/mL | 80200 ng/mL | 75700 ng/mL | 57200 ng/mL | 51100 ng/mL | 53000 ng/mL | CC1=C(/C=C/C(C)=C/C=C/C(C)=C/CO)C(C)(C)CCC1 [Vitamin A, vitamin A] |  |  |  |  |  |  |  |  |  |  |  |  |  | 4.69 | 
6 | 28600 ng/mL | 57900 ng/mL | 36400 ng/mL | 20900 ng/mL | 17900 ng/mL | 11900 ng/mL | Cc1c(C)c2c(c(C)c1O)CC[C@@](C)(CCC[C@H](C)CCC[C@H](C)CCCC(C)C)O2 [Vitamin E, vitamin E] |  |  |  |  |  |  |  |  |  |  |  |  |  | 10.50 | 
